Reference: ChEMBL document CHEMBL5291721, “A preclinical secondary pharmacology resource illuminates target-adverse drug reaction associations of marketed drugs” (Nat Commun, 2023)

Key:
[1] = target: T1, Adenosine receptor A1 (Homo sapiens, UniProt P30542)
T1 sequence (P30542 whole entry): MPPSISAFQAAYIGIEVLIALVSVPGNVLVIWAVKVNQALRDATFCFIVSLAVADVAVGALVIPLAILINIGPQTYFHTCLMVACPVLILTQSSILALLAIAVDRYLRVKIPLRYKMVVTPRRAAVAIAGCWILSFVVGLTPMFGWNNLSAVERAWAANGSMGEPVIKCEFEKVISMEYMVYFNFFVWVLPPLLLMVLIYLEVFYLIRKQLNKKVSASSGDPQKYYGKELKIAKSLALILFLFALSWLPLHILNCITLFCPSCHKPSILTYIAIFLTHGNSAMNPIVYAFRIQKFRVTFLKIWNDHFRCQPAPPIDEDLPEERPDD

[2] = target: Kappa-type opioid receptor (Homo sapiens, UniProt P41145)
Kappa-type opioid receptor, sequence (P41145 whole entry): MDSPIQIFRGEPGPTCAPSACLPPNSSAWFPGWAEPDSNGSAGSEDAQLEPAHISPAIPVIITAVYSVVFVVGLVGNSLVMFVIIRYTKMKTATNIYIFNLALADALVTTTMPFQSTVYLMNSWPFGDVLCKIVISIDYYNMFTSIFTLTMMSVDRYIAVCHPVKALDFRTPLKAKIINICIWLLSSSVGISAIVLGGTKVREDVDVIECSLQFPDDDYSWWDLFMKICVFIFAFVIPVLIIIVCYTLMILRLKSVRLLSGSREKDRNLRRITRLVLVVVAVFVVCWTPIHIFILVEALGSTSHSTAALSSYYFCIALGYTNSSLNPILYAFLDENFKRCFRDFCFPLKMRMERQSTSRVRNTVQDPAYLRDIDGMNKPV

[3] = target: Glutamate receptor ionotropic, NMDA 1 (Rattus norvegicus, UniProt P35439)
[4] = target: T2, Type-1 angiotensin II receptor (Homo sapiens, UniProt P30556)
T2 sequence (P30556 whole entry): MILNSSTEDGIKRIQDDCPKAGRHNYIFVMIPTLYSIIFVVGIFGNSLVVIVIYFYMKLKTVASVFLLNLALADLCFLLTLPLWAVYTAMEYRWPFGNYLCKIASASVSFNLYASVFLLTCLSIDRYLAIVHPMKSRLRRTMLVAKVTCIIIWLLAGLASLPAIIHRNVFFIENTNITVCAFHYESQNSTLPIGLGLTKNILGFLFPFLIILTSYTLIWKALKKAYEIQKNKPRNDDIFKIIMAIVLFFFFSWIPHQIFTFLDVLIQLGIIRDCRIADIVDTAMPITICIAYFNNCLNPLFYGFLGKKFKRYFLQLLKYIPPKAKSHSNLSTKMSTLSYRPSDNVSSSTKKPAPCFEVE

[5] = target: Delta-type opioid receptor (Homo sapiens, UniProt P41143)
Delta-type opioid receptor, sequence (P41143 whole entry): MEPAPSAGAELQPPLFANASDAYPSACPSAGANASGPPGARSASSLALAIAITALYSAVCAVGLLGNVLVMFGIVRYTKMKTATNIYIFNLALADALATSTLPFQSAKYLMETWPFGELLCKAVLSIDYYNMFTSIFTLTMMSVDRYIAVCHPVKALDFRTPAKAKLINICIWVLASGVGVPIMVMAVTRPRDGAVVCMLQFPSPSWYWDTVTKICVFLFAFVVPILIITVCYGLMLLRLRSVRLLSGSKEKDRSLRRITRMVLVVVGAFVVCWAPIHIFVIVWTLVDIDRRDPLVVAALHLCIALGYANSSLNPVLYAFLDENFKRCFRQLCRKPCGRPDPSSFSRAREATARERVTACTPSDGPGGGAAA

[6] = target: Motilin receptor (Homo sapiens, UniProt O43193)
Motilin receptor, sequence (O43193 whole entry): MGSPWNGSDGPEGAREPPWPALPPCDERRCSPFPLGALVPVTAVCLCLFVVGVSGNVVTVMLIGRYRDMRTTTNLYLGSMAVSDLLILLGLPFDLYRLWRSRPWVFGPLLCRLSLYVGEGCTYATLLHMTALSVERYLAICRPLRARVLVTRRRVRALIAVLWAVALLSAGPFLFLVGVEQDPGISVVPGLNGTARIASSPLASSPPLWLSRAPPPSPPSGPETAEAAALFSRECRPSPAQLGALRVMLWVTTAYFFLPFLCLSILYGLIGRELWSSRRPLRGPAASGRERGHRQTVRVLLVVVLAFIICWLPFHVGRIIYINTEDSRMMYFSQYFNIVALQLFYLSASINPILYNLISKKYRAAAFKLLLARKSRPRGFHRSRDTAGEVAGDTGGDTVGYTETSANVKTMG

[7] = target: T3, Progesterone receptor (Homo sapiens, UniProt P06401); assay type: functional
T3 sequence (P06401 whole entry): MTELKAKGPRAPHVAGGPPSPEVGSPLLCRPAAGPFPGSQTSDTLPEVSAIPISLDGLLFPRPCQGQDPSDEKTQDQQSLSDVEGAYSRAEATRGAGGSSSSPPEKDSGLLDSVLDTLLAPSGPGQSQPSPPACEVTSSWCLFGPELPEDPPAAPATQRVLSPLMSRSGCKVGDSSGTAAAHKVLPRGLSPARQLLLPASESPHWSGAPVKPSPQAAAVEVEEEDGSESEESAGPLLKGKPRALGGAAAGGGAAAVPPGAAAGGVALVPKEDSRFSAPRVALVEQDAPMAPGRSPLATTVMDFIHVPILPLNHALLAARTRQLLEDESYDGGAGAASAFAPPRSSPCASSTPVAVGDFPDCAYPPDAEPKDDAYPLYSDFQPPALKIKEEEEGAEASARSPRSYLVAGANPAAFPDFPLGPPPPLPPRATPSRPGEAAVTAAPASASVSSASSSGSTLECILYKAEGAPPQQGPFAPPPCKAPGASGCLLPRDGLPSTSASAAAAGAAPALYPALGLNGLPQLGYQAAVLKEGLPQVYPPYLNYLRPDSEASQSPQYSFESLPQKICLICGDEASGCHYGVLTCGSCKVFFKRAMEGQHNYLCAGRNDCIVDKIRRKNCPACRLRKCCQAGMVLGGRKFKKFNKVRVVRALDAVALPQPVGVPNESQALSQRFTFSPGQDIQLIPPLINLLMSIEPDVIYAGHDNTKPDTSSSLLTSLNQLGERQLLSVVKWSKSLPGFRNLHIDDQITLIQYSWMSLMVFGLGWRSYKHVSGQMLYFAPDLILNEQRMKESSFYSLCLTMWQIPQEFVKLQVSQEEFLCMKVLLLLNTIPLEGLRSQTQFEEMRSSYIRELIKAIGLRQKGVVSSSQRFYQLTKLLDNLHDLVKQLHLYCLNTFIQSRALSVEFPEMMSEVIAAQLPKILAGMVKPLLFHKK

[8] = target: Voltage-gated inwardly rectifying potassium channel KCNH2 (Homo sapiens, UniProt Q12809); assay type: functional
Voltage-gated inwardly rectifying potassium channel KCNH2, sequence (Q12809 whole entry): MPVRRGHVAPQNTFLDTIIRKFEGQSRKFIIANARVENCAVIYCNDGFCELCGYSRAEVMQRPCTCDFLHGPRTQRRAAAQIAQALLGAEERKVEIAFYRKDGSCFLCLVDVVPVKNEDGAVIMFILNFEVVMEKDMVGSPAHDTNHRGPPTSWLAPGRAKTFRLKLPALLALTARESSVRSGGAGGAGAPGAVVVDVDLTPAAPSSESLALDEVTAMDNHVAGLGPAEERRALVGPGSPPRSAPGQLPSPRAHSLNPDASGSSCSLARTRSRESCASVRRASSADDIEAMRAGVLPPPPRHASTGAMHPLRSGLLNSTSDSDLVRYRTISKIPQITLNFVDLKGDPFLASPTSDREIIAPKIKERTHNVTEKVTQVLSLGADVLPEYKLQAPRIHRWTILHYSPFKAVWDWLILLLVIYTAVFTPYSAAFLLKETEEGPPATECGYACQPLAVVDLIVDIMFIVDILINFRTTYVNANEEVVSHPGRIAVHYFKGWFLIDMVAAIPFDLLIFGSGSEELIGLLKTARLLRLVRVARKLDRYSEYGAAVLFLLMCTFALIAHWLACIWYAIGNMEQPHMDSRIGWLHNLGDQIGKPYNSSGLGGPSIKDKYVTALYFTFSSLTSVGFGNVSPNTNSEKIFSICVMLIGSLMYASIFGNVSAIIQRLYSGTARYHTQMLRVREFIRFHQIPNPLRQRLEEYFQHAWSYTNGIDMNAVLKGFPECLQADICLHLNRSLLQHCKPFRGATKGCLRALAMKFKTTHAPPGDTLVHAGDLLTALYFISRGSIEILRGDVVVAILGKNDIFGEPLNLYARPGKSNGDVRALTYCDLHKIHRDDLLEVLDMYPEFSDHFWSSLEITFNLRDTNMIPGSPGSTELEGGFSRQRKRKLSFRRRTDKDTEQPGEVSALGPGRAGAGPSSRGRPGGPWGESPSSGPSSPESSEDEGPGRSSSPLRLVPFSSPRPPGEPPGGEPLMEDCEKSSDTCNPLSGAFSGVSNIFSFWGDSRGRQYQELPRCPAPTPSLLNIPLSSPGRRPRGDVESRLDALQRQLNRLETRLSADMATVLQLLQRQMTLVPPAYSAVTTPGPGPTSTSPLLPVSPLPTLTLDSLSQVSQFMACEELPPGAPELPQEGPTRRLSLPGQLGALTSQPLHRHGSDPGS

[9] = target: Histamine H3 receptor (Homo sapiens, UniProt Q9Y5N1)
Histamine H3 receptor, sequence (Q9Y5N1 whole entry): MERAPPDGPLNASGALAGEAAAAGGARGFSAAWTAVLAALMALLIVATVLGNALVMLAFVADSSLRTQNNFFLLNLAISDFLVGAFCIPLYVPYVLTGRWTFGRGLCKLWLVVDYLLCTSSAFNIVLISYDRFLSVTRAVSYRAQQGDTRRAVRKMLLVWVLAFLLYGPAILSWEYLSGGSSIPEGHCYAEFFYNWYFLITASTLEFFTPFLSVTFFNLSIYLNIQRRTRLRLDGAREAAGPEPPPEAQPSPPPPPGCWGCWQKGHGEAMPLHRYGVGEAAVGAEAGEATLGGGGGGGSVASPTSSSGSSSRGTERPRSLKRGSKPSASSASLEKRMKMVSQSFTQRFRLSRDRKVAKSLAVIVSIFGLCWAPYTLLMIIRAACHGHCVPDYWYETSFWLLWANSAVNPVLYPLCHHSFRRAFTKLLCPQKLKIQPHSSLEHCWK

[10] = target: T4, Cholecystokinin receptor type A (Homo sapiens, UniProt P32238)
T4 sequence (P32238 whole entry): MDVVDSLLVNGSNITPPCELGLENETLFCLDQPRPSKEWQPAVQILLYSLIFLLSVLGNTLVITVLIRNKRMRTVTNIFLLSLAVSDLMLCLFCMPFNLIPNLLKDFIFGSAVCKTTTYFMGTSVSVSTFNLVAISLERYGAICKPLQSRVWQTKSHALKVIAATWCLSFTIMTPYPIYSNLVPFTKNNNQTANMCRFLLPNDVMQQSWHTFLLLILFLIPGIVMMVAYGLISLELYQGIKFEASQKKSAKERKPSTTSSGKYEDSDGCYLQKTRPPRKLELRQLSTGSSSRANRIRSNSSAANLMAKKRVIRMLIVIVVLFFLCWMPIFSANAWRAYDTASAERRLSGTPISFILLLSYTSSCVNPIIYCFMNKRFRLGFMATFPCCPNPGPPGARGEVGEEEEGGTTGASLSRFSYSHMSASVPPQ

[11] = target: Vasopressin V2 receptor (Homo sapiens, UniProt P30518)
Vasopressin V2 receptor, sequence (P30518 whole entry): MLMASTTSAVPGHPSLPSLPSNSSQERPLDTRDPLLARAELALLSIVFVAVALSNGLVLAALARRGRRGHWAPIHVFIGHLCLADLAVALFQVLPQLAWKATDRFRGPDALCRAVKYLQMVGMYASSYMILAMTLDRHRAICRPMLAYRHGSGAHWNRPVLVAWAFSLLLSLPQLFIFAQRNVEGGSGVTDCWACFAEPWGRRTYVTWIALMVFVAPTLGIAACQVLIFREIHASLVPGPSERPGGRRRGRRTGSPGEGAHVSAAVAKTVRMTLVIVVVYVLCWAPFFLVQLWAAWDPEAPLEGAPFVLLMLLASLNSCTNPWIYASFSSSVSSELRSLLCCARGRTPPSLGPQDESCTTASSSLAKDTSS
Note: assay procedure not described here.

Compound	AC50 [1] [µM]	AC50 [2] [µM]	AC50 [3] [µM]	AC50 [4] [µM]	AC50 [5] [µM]	AC50 [6] [µM]	AC50 [7] [µM]	AC50 [8] [µM]	AC50 [9] [µM]	AC50 [10] [µM]	AC50 [11] [µM]
CC(C)N(CCCCOCC(=O)O)c1cnc(-c2ccccc2)c(-c2ccccc2)n1	> 30	> 30	> 30	17	> 30	> 30	> 30	> 30	> 30	> 10	> 30
C[N+]12CCC(CC1)C(OC(=O)C(O)(c1ccccc1)c1ccccc1)C2 (stereo unspecified)	> 30	> 30	> 30	> 30	> 30	> 30	> 30	1.3	> 30	> 30	> 30
COc1cc(C)c(/C=C/C(C)=C/C=C/C(C)=C/C(=O)O)c(C)c1C [ACITRETIN]	> 10	> 10	> 10	> 10	> 30	> 10	> 30	> 30	> 10	> 10	> 10
O=C(O)CCNC(=O)c1ccc(/N=N/c2ccc(O)c(C(=O)O)c2)cc1 [BALSALAZIDE]	> 30	> 30	> 30	27.6	> 30	> 30	> 30	> 30	35.5	> 30	36.9
O=C(CCCN1CCC(O)(c2ccc(Br)cc2)CC1)c1ccc(F)cc1 [BROMPERIDOL]	> 30	10	> 30	> 30	> 30	> 30	> 30	0.23	> 30	> 30	> 30
Clc1ccc(CCC(Cn2ccnc2)Sc2c(Cl)cccc2Cl)cc1 (stereo unspecified) [BUTOCONAZOLE]	> 30	1.8	> 30	30	> 30	> 30	9.1	5.9	> 30	> 30	> 30
CO/N=C(\C(=O)N[C@@H]1C(=O)N2C(C(=O)O)=C(CSc3nc(=O)c(=O)[nH]n3C)CS[C@H]12)c1csc(N)n1 [CEFTRIAXONE]	> 30	> 30	> 30	> 30	> 30	> 30	23	> 30	> 30	> 30	> 30
CC(CN(C)C)C(C)(O)Cc1ccc(Cl)cc1 (stereo unspecified) [CLOBUTINOL]	> 30	> 10	> 10	> 30	> 30	> 10	> 30	8.45	> 10	> 30	> 30
Oc1ccc(CCNCCCCCCNCCc2ccccc2)cc1O [DOPEXAMINE]	> 30	4.3	> 30	> 30	> 30	> 30	> 30	2.9	11	> 30	> 30
CCN1CC(CCN2CCOCC2)C(c2ccccc2)(c2ccccc2)C1=O (stereo unspecified) [DOXAPRAM]	> 30	> 30	> 30	> 30	> 30	> 30	> 30	10.5	> 30	> 30	> 30
CCc1cc2c(s1)-n1c(C)nnc1CN=C2c1ccccc1Cl [ETIZOLAM]	> 30	2.5	> 30	> 30	> 30	> 30	> 30	> 30	> 30	> 30	> 30
CCOC(=O)c1ncn2c1CN(C)C(=O)c1cc(F)ccc1-2 [FLUMAZENIL]	> 30	> 30	> 30	> 30	> 30	> 30	> 30	> 30	> 30	> 30	> 30
CC/C=C\C/C=C\C/C=C\C/C=C\C/C=C\CCCC(=O)OCC [ICOSAPENT ETHYL]	> 30	> 30	> 30	> 30	> 30	> 30	3.5	> 30	> 30	> 30	> 10
NNC(=O)c1ccncc1 [ISONIAZID]	> 30	> 30	> 30	> 30	> 30	> 30	> 30	> 30	> 30	> 30	> 30
COc1ccc(CN2CCN(C(c3ccc(F)cc3)c3ccc(F)cc3)CC2)c(OC)c1OC [LOMERIZINE]	> 30	12	> 30	> 30	> 30	> 30	> 30	0.45	> 30	> 30	> 30
O=C(NCCO[N+](=O)[O-])c1cccnc1 [NICORANDIL]	> 30	> 30	> 30	> 30	> 30	> 30	> 30	> 30	> 30	> 30	> 30
COc1cc2[nH]c(C)c(CCN3CCN(c4ccccc4)CC3)c2cc1OC [OXYPERTINE]	> 30	> 30	> 30	> 30	> 30	> 30	> 30		> 30	> 30	> 30
CCOC(=O)[C@@H](N)Cc1ccc(-c2cc(O[C@H](c3ccc(Cl)cc3-n3ccc(C)n3)C(F)(F)F)nc(N)n2)cc1 [TELOTRISTAT ETHYL]	> 30	> 30	> 30	11	> 30		> 30	26	> 30	10	> 30
